Test results reported in US20240229098A1, “BIOLUMINOGENIC ASSAY FOR DRUG-RESISTANCE BACTERIA DETECTION” (priority 2021, published 2024).

Key:
firefly luciferase = molecular target: T1, firefly luciferase (Photinus pyralis, UniProt P08659); experiment: Background bioluminescence and oxidation of pro-luciferin probes on repeated addition of firefly luciferase; assay type: biochemical; settings: for bioluminescence emission on additional batches of firefly luciferase: repeated firefly luciferase addition, no β-lactamase
T1 construct: purchased Promega E1701
Description: The initial bioluminescent background signal may come from residual D-luciferin present in the sample. High-performance liquid chromatography (HPLC) analysis could not detect any D-luciferin at a concentration below 0.1 μM. However, addition of firefly luciferase can efficiently detect and consume the residual free D-luciferin.
To further confirm the quenching effect of dabcyl in D-Bluco, another control, Am-Bluco, was prepared that is structurally similar to D-Bluco but with dabcyl replaced by a structure lacking the broad absorption between 400 and 530 nm (FIG. 1).

TEM-1 [1] = molecular target: T2, TEM-1 (Escherichia coli, UniProt P62593); assay type: biochemical; design: made in house; settings: 10 μM probe, TEM-1 20 nM, 15 min, PBS pH 7.4, r.t.
Description: RLU indicates relative light units.
(§1) FIGS. 9A and 9B illustrates bioluminescent studies of D-Bluco and O-Bluco treating with various β-lactamases. 10 μM of Bluco, D-Bluco and O-Bluco incubated with 20 nM TEM-1 for 15 min in PBS at r.t. The bioluminescent signals for each compound was evaluated with or without the addition of TEM-1 by a luminator. […] The relative bioluminescent was calculated by removing background signal in PBS.
The bioluminescence emission from the released D-luciferin was measured. […] Also evaluated was whether there was interference between luciferase and β-lactamases in such dual enzyme reaction system.
The signal to background ratio for D-Bluco, O-Bluco, and Bluco was measured following the addition of the firefly luciferase (fLuc).
(§2) The caged luciferin probes were incubated with different concentrations of TEM-1 β-lactamase or IMP-1 carbapenemase (0.001-0.1 fmol) in PBS (pH=7.4) for 2 hr at 25° C. Then a mixture of luciferase (200 nM), ATP (2 mM), and MgCl2 (4 mM) was added, and bioluminescent signals were detected with a SpectraMax microplate reader or a luminator.

[2] = system: KPC-3, BlaC, TEM-1, IMP-1, AmpC, OXA-48; experiment: Bioluminescence with panel of recombinant β-lactamases of clinical relevance; assay type: biochemical
Description: as §1
Having confirmed the quenching ability of dabcyl to lower D-Bluco bioluminescent background emission, the activity of D-Bluco towards a variety of β-lactamases that are of clinical relevance in addition to TEM-1, including KPC-3, BlaC (Class A), AmpC (Class C), and OXA-48 (Class D) was then assessed. These enzymes were recombinantly expressed and purified. The bioluminescent signal was measured with an IVIS optical imaging system after treating D-Bluco with each enzyme for 2 hours at room temperature.
D-Bluco and O-Bluco were evaluated with various β-lactamase that of clinical relevance (FIG. 9B and 9C), including KPC-3, BlaC, TEM-1 (Class A), IMP-1 (Class B), AmpC (Class C), and OXA-48 (Class D). These enzymes were recombinantly expressed, purified as previously described^25. The bioluminescent signal was measured after incubating O-Bluco or D-Bluco with each enzyme at different concentrations for 2 hr at r.t. […] This compares favorably to previously reported fluorescent cephalosporin probe with a 1000-fold sensitivity improvement.^26
as §2

TEM-1 [3] = molecular target: T2, TEM-1; settings: D-luciferin 10 μM, TEM-1 10, 20, 50, 100 nM, 15 min, PBS pH 7.4
Description: (§3) Bioluminescent signal was measured after the addition of bioluminescent reagent. Statistical significance was calculated using the unpaired two-tailed Student's t test (** p<0.01, **** p<0.0001).
(§4) The study was duplicated at room temperature with PBS (pH=7.4). Statistical significance was calculated using the unpaired two-tailed Student's t test (ns: not significant). The study was duplicated at room temperature with PBS (pH=7.4) as the buffer. Data were collected on a SpectraMax iD3 multimode microplate reader.

IMP-1 = IMP-1 (Serratia marcescens, UniProt P52699); settings: D-luciferin 10 μM, IMP-1 10, 20, 50, 100 nM, 15 min, PBS pH 7.4
Description: as §3, §4

TEM-1 [4] = molecular target: T2, TEM-1; experiment: Fluorescence turn-on of caged luciferin probes with recombinant TEM-1 bla; assay type: biochemical; design: made in house
Description: D-Bluco was evaluated as to whether it could be processed by β-lactamase to release luciferin with one of the most prevalent Ambler class A β-lactamases, TEM-1.
Both probes were evaluated to with TEM-1 bla, one of the most abundant β-Lactamases for initial testing. The fluorescent signal of D-Bluco and O-Bluco incubated with 100 nM TEM-1 bla was examined with a microplate reader over a period of 40 minutes.
General information: All chemicals were purchased from commercial sources and used without further purification. […] QuantiLum Recombinant luciferase (catalog number E1701) was purchased from Promega (Madison, WI). Reaction progress was monitored by analytical thin layer chromatography (TLC) with 0.25 mm silica gel 60F plates and visualized with fluorescent indicator (254 nm). Flash column chromatography was conducted using silica gel (SiliaFlash for flash column, 40-63 μm, 60 Å). The ^1H and ^13C NMR spectra were acquired on a Varian 500 MHz or 600 MHz magnetic resonance spectrometer. Data for ^1H NMR spectra are reported as follows: chemical shifts are reported as δ in units of parts per million (ppm) relative to chloroform-d (δ 7.26, s); multiplicities are reported as follows: s (singlet), d (doublet), t (triplet), q (quartet), dd (doublet of doublets), m (multiplet), or br (broadened); coupling constants are reported as a J value in Hertz (Hz); and the number of protons (n) for a given resonance is indicated nH and based on the spectral integration values. High resolution mass spectra were obtained on a Thermo Exactive Orbitrap LC/MS. HPLC was performed on a Dionex HPLC System (Dionex Corporation) equipped with a GP50 gradient pump and an inline diode array UV-Vis detector. A reversed-phase C18 (Phenomenax, 5 μm, 10×250 mm or Dionex, 5 μm, 4.6×250 mm) column was used with a MeCN (B)/H2O (A) gradient mobile phase containing 0.1% trifluoroacetic acid at a flow of 1 or 3 mL/min for the analysis. Fluorescence Spectra and kinetic experiments were collected by a SpectraMax iD3 multimode microplate reader (Molecular Device, San Jose, CA).

T1 sequence (P08659 whole entry): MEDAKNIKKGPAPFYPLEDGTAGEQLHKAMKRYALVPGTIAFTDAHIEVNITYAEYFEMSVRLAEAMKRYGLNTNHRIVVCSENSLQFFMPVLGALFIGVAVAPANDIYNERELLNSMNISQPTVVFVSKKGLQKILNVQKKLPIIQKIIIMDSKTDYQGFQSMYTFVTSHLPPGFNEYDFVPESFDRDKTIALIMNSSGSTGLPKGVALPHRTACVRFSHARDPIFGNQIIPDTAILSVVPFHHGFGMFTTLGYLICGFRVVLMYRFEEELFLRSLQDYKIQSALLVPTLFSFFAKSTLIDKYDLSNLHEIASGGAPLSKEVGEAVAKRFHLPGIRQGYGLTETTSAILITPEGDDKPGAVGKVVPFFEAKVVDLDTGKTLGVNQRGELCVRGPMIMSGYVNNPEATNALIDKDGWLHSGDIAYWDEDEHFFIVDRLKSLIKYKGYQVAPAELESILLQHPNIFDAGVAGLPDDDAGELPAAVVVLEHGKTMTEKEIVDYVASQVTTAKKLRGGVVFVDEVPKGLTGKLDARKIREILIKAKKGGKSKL
T2 sequence (P62593 24-286 limits assumed): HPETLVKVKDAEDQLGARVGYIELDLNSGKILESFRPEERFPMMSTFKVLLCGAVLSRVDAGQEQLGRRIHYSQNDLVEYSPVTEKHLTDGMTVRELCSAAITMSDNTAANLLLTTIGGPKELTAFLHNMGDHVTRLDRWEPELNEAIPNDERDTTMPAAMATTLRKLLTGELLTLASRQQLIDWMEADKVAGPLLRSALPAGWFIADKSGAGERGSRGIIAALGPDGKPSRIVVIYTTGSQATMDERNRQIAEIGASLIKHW
IMP-1, sequence (P52699 19-246): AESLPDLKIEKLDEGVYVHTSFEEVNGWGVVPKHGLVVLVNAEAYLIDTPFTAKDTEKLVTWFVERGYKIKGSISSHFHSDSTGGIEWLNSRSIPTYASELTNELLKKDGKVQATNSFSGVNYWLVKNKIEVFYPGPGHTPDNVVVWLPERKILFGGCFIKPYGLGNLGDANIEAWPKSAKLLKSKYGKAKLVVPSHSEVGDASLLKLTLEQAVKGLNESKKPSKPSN

O=C(CCCCCNC(=O)c1ccc(NC(=O)c2ccccc2)cc1)NC1C(=O)N2C(C(=O)O)=C(COc3ccc4nc(C5=NC(C(=O)O)CS5)sc4c3)C[S+]([O-])C12 (stereo not shown) [Am-Bluco, 7-(6-(4-benzamidobenzamido)hexanamido)-3-(((2-(4-carboxy-4,5-dihydrothiazol-2-yl)benzo[d]thiazol-6-yl)oxy)methyl)-8-oxo-5-thia-1-azabicyclo[4.2.0]oct-2-ene-2-carboxylic acid 5-oxide]
oxidation of probe incubated with firefly luciferase (mass spectrometry) (firefly luciferase): oxidized
bioluminescence emission on additional batches of firefly luciferase (firefly luciferase): produced bioluminescence emission upon each addition of firefly luciferase

O=C(Cc1ccccc1)NC1C(=O)N2C(C(=O)O)=C(COc3ccc4nc(C5=N[C@H](C(=O)O)CS5)sc4c3)C[S+]([O-])C12 (stereo partly shown) [Bluco, reference compound]
oxidation of probe incubated with firefly luciferase (mass spectrometry) (firefly luciferase): oxidized
bioluminescence emission on additional batches of firefly luciferase (firefly luciferase): still bioluminescence emission
fold increase in bioluminescence emission upon TEM-1 treatment (turn-on ratio, signal with TEM-1 over signal without TEM-1) (TEM-1 [1]): 41.3 fold
bioluminescence triggered by β-lactamases TEM-1, KPC-3, BlaC, AmpC, OXA-48 ([2]; each enzyme 2 hours at room temperature, IVIS imaging): significant bioluminescence

O=C(O)[C@H]1CSC(c2nc3ccc(O)cc3s2)=N1 [D-luciferin]
difference in bioluminescent signal of D-luciferin with or without TEM-1 (TEM-1 [3]): No significant differences
difference in bioluminescent signal of D-luciferin with or without IMP-1 (IMP-1): No significant differences

O=C(Cc1ccccc1)NC1C(=O)N2C(C(=O)O)=C(COc3ccc(COc4ccc5nc(C6=N[C@@H](C(=O)O)CS6)sc5c4)cc3)C3(CC3)SC12 (stereo partly drawn) [O-Bluco, 4-((4-(((2-((S)-4-carboxy-4,5-dihydrothiazol-2-yl)benzo[d]thiazol-6-yl)oxy)methyl)phenoxy)methyl)-7-oxo-8-(2-phenylacetamido)-2-thia-6-azaspiro[bicyclo[4.2.0]octane-3,1′-cyclopropan]-4-ene-5-carboxylic acid]
fold increase in fluorescence emission in the presence of TEM-1 (TEM-1 [4]; 1 μM probe, TEM-1 100 nM, 40 min, PBS pH 7.4, r.t., excitation 330 nm, emission 530 nm): 32.7 fold
course of fluorescence signal with TEM-1 bla (TEM-1 [4]; TEM-1 bla 100 nM, monitored over 40 minutes): gradual increase of signal
fold increase in bioluminescence emission upon TEM-1 treatment (turn-on ratio, signal with TEM-1 over signal without TEM-1) (TEM-1 [1]): 100.5 fold
sensitivity improvement over previously reported fluorescent cephalosporin probes [2]: 1000 fold
detection limits for the panel of enzymes ([2]; KPC-3, BlaC, TEM-1, IMP-1, AmpC, OXA-48, 2 hr at r.t.): within the femtomole range
